The results in this text go back to patent EP0308279A1, “Water-soluble polysaccharides, process for obtaining them, their use as medicaments and a preparation containing them” (LIPHA, LYONNAISE INDUSTRIELLE PHARMACEUTIQUE, priority 1987, dated 1989).

SMILES strings stand for the structures.

The experiment relates to macrophages alvéolaires de rats Kyoto. Description: Activation of alveolar macrophages (cytostatic/cytotoxic activity towards tumour target cells, tritiated thymidine incorporation). It counts as cell-based, rat. The conditions noted are these: mean of 3 measurements. As for the experimental part: Ce test met en évidence le phénomène d'activation des macrophages par une mesure de leur activité cytostatique ou cytotoxique envers des cellules de lignée tumorale.
Le test de mesure de l'activation des macrophages consiste à traiter une culture de macrophages alvéolaires ou péritonéaux de rat ou de souris ou de monocytes humaines par des doses des polysaccharides de l'invention variant entre 0,001 et 50 µg/ml. Il est réalisé de la manière suivante :
10⁵ macrophages de souris de souche Balb c, Swiss, C57/B16 ou DBA/2 ou de rat de souche Kyoto ou Wistar sont placés dans une plaque de microtitration dans du milieu de culture complété ou non par du sérum artificiel et de 1 à 10 µg/ml de polymyxine.
On ajoute les polysaccharides de l'invention ou le tampon correspondant sans polysaccharides comme contrôle négatif. Les cellules sont incubées 24 heures à 37°C. On élimine ensuite le surnageant et lave les cellules avec du milieu de culture.
On ajoute alors les cellules cibles tumorales L1210 ou P815 dans du milieu complet. Le rapport macrophages/cellules cibles est de 10. On incube alors la culture durant 24 heures à 37°C. Puis on ajoute 1 - 2 x 10⁴Bq de thymidine tritiée par puits. Les cellules sont récupérées après 4 heures d'incubation à 37°C sur un filtre en fibre de verre. Après séchage des filtres, la radioactivité est mesurée en présence d'un mélange scintillant.
Les résultats correspondent à une moyenne de 3 mesures. Le pourcentage d'activation est exprimé : [formula] R : radioactivité incorporée par les cellules tumorales cultivées en présence de macrophages de référence. S : radioactivité incorporée par les cellules tumorales cultivées en présence de macrophages stimulés.
Background: Uptake of a labelled nucleoside into DNA is a usual measure of proliferation.

As to `CC(=O)N[C@H]1C(O)O[C@H](CO)[C@@H](O)[C@@H]1O[C@H](C)C(=O)N[C@@H](C)C(=O)N[C@H](CCC(=O)O)C(N)=O` (mixture of isomers) [Muramyl dipeptide (MDP), Muramyl dipeptide], the “% d'activation des macrophages alvéolaires de rats Kyoto.” value (dose 0,01 µg/ml) came out at 28%, the “% d'activation des macrophages alvéolaires de rats Kyoto.” value (dose 1 µg/ml) is recorded as 90% and the “% d'activation des macrophages alvéolaires de rats Kyoto.” value (dose 10 µg/ml) was 92%.
